Test system: bone marrow-derived macrophages (BMDM)
Assay: In vitro macrophage polarization assay (RT-qPCR gene expression)
Assay type: cell-based, mice
Settings: 0.5 mg/mL recombinant TSG6, 2 days, qPCR vs GAPDH, FIG. 3C
Excerpt: To determine if fibroblast secreted TSG-6 regulates the presence the distinct myeloid subsets between melanoma and pancreatic TME, the inventors performed receptor-ligand studies between the myeloid subsets and fibroblasts. First, the inventors analyzed the relative expression of TSG-6 and its binding partner CD44 in the fibroblasts and macrophage/neutrophil subsets. While TSG-6 was expressed slightly higher in the mT4 tumors as compared to B16F10 tumors, its ligand CD44 was primarily expressed in the macrophage/neutrophil subsets only in the mT4 tumors (FIG. 3A). To determine if this observation correlates with higher interactions between TSG-6 and suppressive myeloid subsets in the mT4 tumors, the inventors performed receptor-ligand interaction studies using CellChat analysis (PMID: 33597522). The analysis indicated strong communication probabilities of fibroblast expressed TSG-6 and myeloid CD44 interaction only in the mT4 tumors and not B16F10 tumors (FIG. 3B). To further evaluate whether TSG-6 regulates the immunosuppressive macrophage phenotype, the inventors performed an in vitro macrophage polarization assay. The inventors stimulated bone marrow-derived macrophages (BMDM) with either LPS or recombinant TSG-6 (rTSG-6) and observed that rTSG-6 increased the expression of Arg1, Mafb, Mrc1, and Vista in the macrophages and suppressed Ifng expression (FIG. 3C). Thus, the above data indicates TSG-6 interacts with suppressive intratumoral myeloid subsets and might have a role to play in resistance to ICT.
TSG-6 stimulated bone marrow derived macrophages (BMDM) and RT-qPCR Gene Expression: BMDM were isolated from the femurs of wild type C57/BL6 mice in ice cold complete RPMI 1640 media. Both epiphyses were removed before the bones were placed in sterile microfuge tubes and centrifuged at 500×g for 5 minutes at 4° C. to extrude the bone marrow. The collected bone marrow was homogenized by pipetting followed by RBC lysis. The single cell suspension of bone marrow cells obtained, was counted in an automated Vicell cell counter before 2.0e6 cells/well were cultured in Iscove's Modified Dulbecco's Medium (IMDM) supplemented with 10% FBS and 10 ng/ml Macrophage colony-stimulating factor (M-CSF) (Biolegend, Cat #576404)) in a 12 well plate. On Day 3, cells were resuspended in fresh growth media and on Day 7, cells were subjected to fresh complete IMDM containing 100 ng/ml LPS (InvivoGen, Cat #tlrl-eblps) and 0.5 mg/mL recombinant TSG6 (R&D Systems, Cat #2326-TS-050) and left in culture for 2 days. Supernatants were removed and adhered macrophages were subjected to Accutase cell detachment solution following manufacturers protocol (Innovative Cell Technologies, 07920). Macrophages were resuspended and centrifuged at 350×g for 8 minutes. Cell pellets were lysed with 350 uL buffer RLT lysis buffer (Qiagen, 74104) supplemented with B-ME and subjected to RNA extraction using RNA mini extraction kit (Qiagen, 74104). cDNA was synthesized using the NEB LunaScript RT SuperMix Kit (E3010L) and 30 ng of total cDNA was used for each 20 uL qPCR reaction. Taqman gene expression Real-Time PCR assays were run using manufacturers protocol and gene targets were compared to GAPDH housekeeping expression (GAPDH, Mm05724508_g1; IFNg, Mm01168134_m1; Mrc1, Mm01329359_m1; Arg1, Mm00475988_m1; Mafb, Mm00627481_s1, VISTA, Mm00472312_m1).

Substance: rTSG-6: recombinant TSG6 protein, R&D Systems, Cat #2326-TS-050
- Ifng expression: suppressed
- expression of Arg1: increased
- expression of Mafb: increased
- expression of Mrc1: increased
- expression of Vista: increased

— patent US20250377365A1, “METHODS INVOLVING DETECTING TNF STIMULATED GENE 6 (TSG-6) FOR IMPROVING ANTI-TUMOR RESPONSES TO IMMUNE THERAPY IN CANCER PATIENTS” (BOARD OF REGENTS, THE UNIVERSITY OF TEXAS SYSTEM, priority 2022, published 2025)
